{"source": "patent EP4159721A1", "about": "“CONDENSED 3,3-DIFLUORO-PIPERIDINE DERIVATIVES AS INHIBITORS OF CORONAVIRUSES 3-CHYMOTRYPSIN-LIKE PROTEASE” (Qubit Pharmaceuticals, priority 2021, dated 2023)"}
{"target": "T1, SARS-CoV-2 3CLpro (Severe acute respiratory syndrome coronavirus 2, UniProt P0DTD1)", "assay": "Binding assessment by Nuclear Magnetic Resonance (WaterLOGSY and STD)", "design": "key: +++: strong binder; ++: binder; +/-: not to very low binder", "details": "NMR (WaterLOGSY, STD); 10 µM of 3CLpro, ligand 100 µM to 2 mM, pH=7.3"}
{"smiles": "CSc1ccc2c(c1)NCC(F)(F)C2O", "note": "(single isomer, unassigned) [Compound 1 or 2, 3,3-difluoro-7-(methylsulfanyl)-1,2,3,4-tetrahydroquinolin-4-ol]", "Binding Activity": "++"}
{"smiles": "CSc1cc2c(cn1)C(O)C(F)(F)CN2", "note": "(single isomer, unassigned) [Compound 3 or 4, 3,3-difluoro-7-(methylsulfanyl)-1,2,3,4-tetrahydro-1,6-naphthyridin-4-ol]", "Binding Activity": "+++"}
{"smiles": "CSc1ccc2c(c1)NC(=O)C(F)(F)C2O", "note": "(single isomer, unassigned) [Compound 5 or 6, 3,3-difluoro-4-hydroxy-7-(methylsulfanyl)-1,2,3,4-tetrahydroquinolin-2-one]", "Binding Activity": "+++"}
{"smiles": "CSc1cc2c(cn1)C(O)C(F)(F)C(=O)N2", "note": "(single isomer, unassigned) [Compound 7 or 8, 3,3-difluoro-4-hydroxy-7-(methylsulfanyl)-1,2,3,4-tetrahydro-1,6-naphthyridin-2-one]", "Binding Activity": "++"}
{"smiles": "CSc1ccc2c(c1)NC(=O)C(F)(F)C2C", "note": "(single isomer, unassigned) [Compound 9 or 10, 3,3-difluoro-4-methyl-7-(methylsulfanyl)-1,2,3,4-tetrahydroquinolin-2-one]", "Binding Activity": "+++"}
{"smiles": "CSc1ccc2c(c1)NCC(F)(F)C2C", "note": "(single isomer, unassigned) [Compound 11 or 12, 3,3-difluoro-4-methyl-7-(methylsulfanyl)-1,2,3,4-tetrahydroquinoline]", "Binding Activity": "++"}
{"smiles": "O=C1Nc2cc(SC3CC3)ccc2C(O)C1(F)F", "note": "(single isomer, unassigned) [Compound 15 or 16]", "Binding Activity": "++"}
{"smiles": "CSc1cc(F)c2c(c1)NC(=O)C(F)(F)C2O", "note": "(single isomer, unassigned) [Compound 17 or 18]", "Binding Activity": "++"}
{"smiles": "Cc1nn(C)c2c1C(O)C(F)(F)C(=O)N2", "note": "(single isomer, unassigned) [Compound 19 or 20, 5,5-difluoro-4-hydroxy-1,3-dimethyl-1H,4H,5H,6H,7H-pyrazolo[3,4-b]pyridin-6-one]", "Binding Activity": "++"}
{"smiles": "CSc1ccc2c(c1)NC(=O)CC2C", "note": "(centres unmarked) [reference compound]", "Binding Activity": "+/-"}
{"smiles": "CSc1ccc2c(c1)NC(=O)CC2=O", "note": "[reference compound]", "Binding Activity": "+/-"}
{"smiles": "O=C1Nc2ccccc2C(O)C1(F)F", "note": "(centres unmarked) [reference compound]", "Binding Activity": "+/-"}
{"smiles": "CSc1ccc2c(c1)NC(=O)C(F)(F)C2(C)O", "note": "(centres unmarked) [reference compound]", "Binding Activity": "+/-"}
{"target": "T1, SARS-CoV-2 3CLpro", "assay": "FRET-based assay of 3CLpro inhibitory activity", "format": "biochemical", "details": "not given", "units": {"IC50": "µM"}}
{"smiles": "CSc1cc2c(cn1)C(=O)C(F)(F)C(=O)N2", "note": "[Compound 13, 3,3-difluoro-7-(methylsulfanyl)-1,2,3,4-tetrahydro-1,6-naphthyridine-2,4-dione]", "IC50": 2.27}
{"target": "T1, SARS-CoV-2 3CLpro", "assay": "FRET-based assay of 3CLpro inhibitory activity", "format": "biochemical", "details": "0.02 µM 3CLpro, 5 µM peptide substrate, 20 minutes incubation at room temperature; triplicate, average and standard deviation; read-out: IC50", "units": {"IC50": "µM"}}
{"smiles": "CSc1ccc2c(c1)NC(=O)C(F)(F)C2=O", "note": "[Compound 14, 3,3-difluoro-7-(methylsulfanyl)-1,2,3,4-tetrahydroquinoline-2,4-dione]", "IC50": 0.83}
{"target": "T1, SARS-CoV-2 3CLpro", "assay": "Binding studies by Mass Spectrometry (ESI-MS, denaturing conditions)", "details": "10 µM 3CLpro, 1:1 or 10:1 compound:protein, 20 min at room temperature"}
{"smiles": "CSc1cc2c(cn1)C(=O)C(F)(F)C(=O)N2", "note": "[Compound 13, 3,3-difluoro-7-(methylsulfanyl)-1,2,3,4-tetrahydro-1,6-naphthyridine-2,4-dione]", "Covalent binding": "Covalent binding is confirmed"}
{"smiles": "CSc1ccc2c(c1)NC(=O)C(F)(F)C2=O", "note": "[Compound 14, 3,3-difluoro-7-(methylsulfanyl)-1,2,3,4-tetrahydroquinoline-2,4-dione]", "Covalent binding": "Covalent binding is confirmed"}
